Values after ≈ are worked out from the molar mass of the structure shown. Read-outs that look alike come from different tables or passages of the source.
Experiments:
[1] = tested on: P. aeruginosa (ATCC 19660); test: Antibiotic susceptibility (MIC, Microscan® MIC Plus Type 2 panel) with rBPI21/P123 and EDTA; format: cell-based; parameters: key to susceptibility interpretation of MIC (superscript): R: resistant; I: intermediate; S: susceptible
A. baumannii = test: Antibiotic susceptibility (MIC, Sensititre Trays) with rBPI21 poloxamer formulations; format: cell-based; settings: for MIC: Acinetobacter baumannii, read-out: Minimum Inhibitory Concentration
[2] = rBPI21/P123 at 64 μg/ml rBPI21, With 0% EDTA
[3] = rBPI21/P123 at 64 μg/ml rBPI21, With 0.01% EDTA
[4] = rBPI21/P123 at 64 μg/ml rBPI21, With 0.05% EDTA
[5] = rBPI21/P123 at 64 μg/ml rBPI21, With 0.1% EDTA
[6] = CSMHB, 16 μg/mL rBPI21 with F68
[7] = CSMHB, 16 μg/mL rBPI21 with P103
[8] = CSMHB, 16 μg/mL rBPI21 with P104
[9] = CSMHB, 16 μg/mL rBPI21 with P105
[10] = CSMHB, 16 μg/mL rBPI21 with P123
[11] = Serum, 16 μg/mL rBPI21 with F68
[12] = Serum, 16 μg/mL rBPI21 with P103
[13] = Serum, 16 μg/mL rBPI21 with P104
[14] = Serum, 16 μg/mL rBPI21 with P105
[15] = Serum, 16 μg/mL rBPI21 with P123

Compound: O=C(N[C@H](CO)[C@H](O)c1ccc([N+](=O)[O-])cc1)C(Cl)Cl [Chloramphenicol]
- Minimum Inhibitory Concentration of Antibiotic ([1]; Control (No BPI21)): > 16 µg/mL
- susceptibility interpretation of MIC (superscript) ([1]; Control (No BPI21)): R
- Minimum Inhibitory Concentration of Antibiotic [1, 2]: 8 µg/mL
- susceptibility interpretation of MIC (superscript) [1, 2]: S
- Minimum Inhibitory Concentration of Antibiotic [1, 3]: 16 µg/mL
- susceptibility interpretation of MIC (superscript) [1, 3]: I
- Minimum Inhibitory Concentration of Antibiotic [1, 4]: < 2 µg/mL
- susceptibility interpretation of MIC (superscript) [1, 4]: S
- Minimum Inhibitory Concentration of Antibiotic [1, 5]: < 2 µg/mL
- susceptibility interpretation of MIC (superscript) [1, 5]: S
- effect of EDTA added to the rBPI21/P123 formulation on susceptibility of the strain to the antibiotic ([1]; summary of Table 17): reversing resistance
- MIC (A. baumannii; [6]): 1 µg/mL (≈ 3.09 µM)
- MIC (A. baumannii; [7]): < 0.5 µg/mL
- MIC (A. baumannii; [8]): 1 µg/mL (≈ 3.09 µM)
- MIC (A. baumannii; [9]): < 0.5 µg/mL
- MIC (A. baumannii; [10]): < 0.5 µg/mL
- MIC (A. baumannii; CSMHB, Control (no BPI)): > 4 µg/mL
- MIC (A. baumannii; [11]): > 4 µg/mL
- MIC (A. baumannii; [12]): 2 µg/mL (≈ 6.19 µM)
- MIC (A. baumannii; [13]): 4 µg/mL (≈ 12.4 µM)
- MIC (A. baumannii; [14]): > 4 µg/mL
- MIC (A. baumannii; [15]): > 4 µg/mL
- MIC (A. baumannii; Serum, Control (no BPI)): > 4 µg/mL
- susceptibility interpretation of MIC (superscript) (A. baumannii; [6]): S
- susceptibility interpretation of MIC (superscript) (A. baumannii; [7]): S
- susceptibility interpretation of MIC (superscript) (A. baumannii; [8]): S
- susceptibility interpretation of MIC (superscript) (A. baumannii; [9]): S
- susceptibility interpretation of MIC (superscript) (A. baumannii; [10]): S
- susceptibility interpretation of MIC (superscript) (A. baumannii; CSMHB, Control (no BPI)): R
- susceptibility interpretation of MIC (superscript) (A. baumannii; [11]): R
- susceptibility interpretation of MIC (superscript) (A. baumannii; [12]): S
- susceptibility interpretation of MIC (superscript) (A. baumannii; [13]): R
- susceptibility interpretation of MIC (superscript) (A. baumannii; [14]): R
- susceptibility interpretation of MIC (superscript) (A. baumannii; [15]): R
- susceptibility interpretation of MIC (superscript) (A. baumannii; Serum, Control (no BPI)): R

From patent US6849598B1, “Therapeutic compositions comprising bactericidal/permeability-increasing (BPI) protein products” (XOMA, priority 1995, dated 2005)
